Assay results: patent US8815893B2, “Hetarylaminonaphthyridines” (Merck Patent GmbH, priority 2010, dated 2014)

How the values were obtained:
[1] = molecular target: T1, GST-ALK5 (Homo sapiens, UniProt P36897); test: In-vitro (enzyme) kinase assay, 384-well flashplate (example 14); assay type: biochemical; details: GST-ALK5, GST-SMAD2 substrate, 33P-ATP flashplate, 30° C. 45 min; IC50 classes; read-out: TβR activity (example 14)
T1 sequence (P36897 34-503): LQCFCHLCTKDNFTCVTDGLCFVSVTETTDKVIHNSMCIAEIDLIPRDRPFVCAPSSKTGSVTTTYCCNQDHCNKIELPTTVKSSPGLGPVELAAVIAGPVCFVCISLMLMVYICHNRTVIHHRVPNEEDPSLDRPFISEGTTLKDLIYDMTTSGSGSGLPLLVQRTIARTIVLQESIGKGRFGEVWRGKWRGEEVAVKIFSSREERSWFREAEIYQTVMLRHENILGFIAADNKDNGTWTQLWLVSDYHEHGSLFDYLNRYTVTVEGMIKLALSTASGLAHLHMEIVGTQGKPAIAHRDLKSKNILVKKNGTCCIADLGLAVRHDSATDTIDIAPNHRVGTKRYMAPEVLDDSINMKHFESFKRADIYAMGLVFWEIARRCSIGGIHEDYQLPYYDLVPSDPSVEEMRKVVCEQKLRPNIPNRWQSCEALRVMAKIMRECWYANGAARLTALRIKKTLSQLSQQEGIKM
Protocol: In-Vitro (Enzyme) Assay for Determination of the Efficacy of Inhibitors of the Inhibition of TGF-Beta-Mediated Effects
The kinase assay was carried out as 384-well flashplate assay. 31.2 nM of GST-ALK5, 439 nM of GST-SMAD2 and 3 mM of ATP (with 0.3 μCi of ^33P-ATP/well) were incubated in a total volume of 35 μl (20 mM of HEPES, 10 mM of MgCl2, 5 mM of MnCl2, 1 mM of DTT, 0.1% of BSA, pH 7.4) without or with test substance (5-10 concentrations) at 30° C. for 45 min. The reaction was stopped using 25 μl of 200 mM EDTA solution, filtered with suction at room temperature after 30 min, and the wells were washed with 3 times 100 μl of 0.9% NaCl solution. Radioactivity was measured in the TopCount. The IC50 values were calculated using RS1. Above and below, all temperatures were indicated in ° C.

[2] = system: lung epithelial cell line Mv1Lu; test: Cellular assay for TGF-beta receptor I kinase inhibitors: elimination of TGF-beta-mediated growth inhibition (example 13); assay type: cell-based; details: 48 h; Mv1Lu cells, 1 ng/ml TGF-beta, 0.5% FCS, two days, Crystal Violet staining; read-out: TβR activity (example 13)
Protocol: Cellular Assay for Testing TGF-Beta Receptor I Kinase Inhibitors
As an example, the ability of the inhibitors to eliminate TGF-beta-mediated growth inhibition was tested. Cells of the lung epithelial cell line Mv1Lu were sown in a defined cell density in a 96-well microtiter plate and cultivated overnight under standard conditions. Next day, the medium was replaced by medium which comprises 0.5% of FCS and 1 ng/ml of TGF-beta, and the test substances were added in defined concentrations, generally in the form of dilution series with 5 fold steps. The concentration of the solvent DMSO was constant at 0.5%. After a further two days, Crystal Violet staining of the cells was carried out. After extraction of the Crystal Violet from the fixed cells, the absorption was measured spectrophotometrically at 550 nm. It could be used as a quantitative measure of the adherent cells present and thus of the cell proliferation during the culture.

Row | Structure (SMILES) | IC50 [1] [nM] | IC50 [2] [nM]
1 | CC(C)(C)OC(=O)NCC(=O)Nc1cc(Nc2cc(-c3cc(Cl)ccc3F)nc3ncccc23)ncn1 [compound 109] | < 100 | < 100
2 | CC(C)(N)CC(=O)Nc1cc(Nc2cc(-c3cc(F)ccc3F)nc3ncccc23)ncn1 [compound 107] | < 100 | < 100
3 | Fc1ccc(Cl)cc1-c1cc(Cc2ccncc2)c2cccnc2n1 [compound 75] | 1000 to 10000 | > 10000
4 | COC(=O)c1cc(Nc2cc(-c3cc(F)ccc3F)nc3ncccc23)ccn1 [compound 116] | 1000 to 10000 | > 10000
5 | CC(C)(C)C(=O)Nc1cc(Nc2cc(-c3cc(Cl)ccc3F)nc3ncccc23)ncn1 [compound 101] | 100 to 1000 | 1000 to 10000
6 | Fc1ccc(F)c(-c2cc(Nc3ccnc(Cl)c3)c3cccnc3n2)c1 [compound 125] | < 100 | 1000 to 10000
7 | CN(C)CC(=O)Nc1cc(Nc2cc(-c3cc(Cl)ccc3F)nc3ncccc23)ncn1 [compound 112] | < 100 | < 100
8 | Fc1ccc(Cl)cc1-c1cc(Nc2cc(NC3CCCCC3)ncn2)c2cccnc2n1 [compound 124] | 1000 to 10000 | > 10000
9 | CC(C)C(=O)Nc1cc(Nc2cc(-c3cc(Cl)ccc3F)nc3ncccc23)ncn1 [compound 92] | < 100 | < 100
10 | Cc1cc(-c2cc(Nc3cc(N(C)C)ncn3)c3cccnc3n2)c(C)o1 [compound 145] | > 10000 | > 10000
11 | OCc1cnccc1Nc1cc(-c2cc(F)ccc2F)nc2ncccc12 [compound 78] | < 100 | < 100
12 | CC(C)(C)CCNc1cc(Nc2cc(-c3cc(Cl)ccc3F)nc3ncccc23)ncn1 [compound 126] | 100 to 1000 | 100 to 1000
13 | Fc1ccc(Cl)cc1-c1cc(Nc2ccnc(-c3cccnc3)n2)c2cccnc2n1 [compound 97] | 1000 to 10000 | > 10000
14 | CC(C)Oc1cccc(-c2cc(Nc3cc(NCCN4CCCC4)ncn3)c3cccnc3n2)c1 [compound 148] | > 10000 | 1000 to 10000
15 | CC(C)(C)CC(=O)Nc1cc(Nc2cc(-c3cc(Cl)ccc3F)nc3ncccc23)ncn1 [compound 104] | < 100 | < 100
16 | CCN1CCN(C(=O)c2cnccc2Nc2cc(-c3cc(Cl)ccc3F)nc3ncccc23)CC1 [compound 132] | 1000 to 10000 | 1000 to 10000
17 | CN1CCC(NC(=O)c2cnccc2Nc2cc(-c3cc(Cl)ccc3F)nc3ncccc23)CC1 [compound 95] | < 100 | < 100
18 | Cc1nn(-c2cc(-c3cc(F)ccc3F)nc3ncccc23)c2ccncc12 [compound 100] | < 100 | 100 to 1000
